Laboratory results taken from article PMC5218480 (PLoS ONE, 2017).

Test system: MV-4-11 cells
Test: Gene expression microarray analysis (Affymetrix PrimeView) and GSEA
Assay type: cell-based, human
Parameters: RFU PODN (11730768_x_at) / Fold change /veh PODN (11730768_x_at) / RFU LINC00158 (11744669_a_at) / Fold change /veh LINC00158 (11744669_a_at) / RFU DUSP10 (11751237_a_at) / Fold change /veh DUSP10 (11751237_a_at) / RFU ID3 (11757404_x_at) / Fold change /veh ID3 (11757404_x_at) / RFU PLEKHG5 (11737974_s_at) / Fold change /veh PLEKHG5 (11737974_s_at) / RFU LRRC4B (11730491_at) / Fold change /veh LRRC4B (11730491_at) / RFU GIMAP4 (11747438_a_at) / Fold change /veh GIMAP4 (11747438_a_at) / RFU KRT8 (11758183_x_at) / Fold change /veh KRT8 (11758183_x_at) / RFU CNN1 (11734310_a_at) / Fold change /veh CNN1 (11734310_a_at) / RFU VPS37D (11726825_at) / Fold change /veh VPS37D (11726825_at) / RFU C10orf10 (11716522_x_at) / Fold change /veh C10orf10 (11716522_x_at) / RFU KIR2DL2 /// KIR2DL4 /// KIR2DL5A /// KIR2DL5B /// KIR2DS1 /// KIR2DS2 /// KIR2DS3 /// KIR2DS4 /// KIR3DL3 /// KIR3DL3 /// KIR3DS1 (11738374_at) / Fold change /veh KIR2DL2 /// KIR2DL4 /// KIR2DL5A /// KIR2DL5B /// KIR2DS1 /// KIR2DS2 /// KIR2DS3 /// KIR2DS4 /// KIR3DL3 /// KIR3DL3 /// KIR3DS1 (11738374_at) / RFU C1QL1 (11718748_at) / Fold change /veh C1QL1 (11718748_at) / RFU TMPRSS4 (11747572_a_at) / Fold change /veh TMPRSS4 (11747572_a_at) / RFU HAMP (11756126_x_at) / Fold change /veh HAMP (11756126_x_at) / RFU RNFT2 (11725882_a_at) / Fold change /veh RNFT2 (11725882_a_at) / RFU NR4A2 (11747474_a_at) / Fold change /veh NR4A2 (11747474_a_at) / RFU ABCC12 (11746883_a_at) / Fold change /veh ABCC12 (11746883_a_at) / RFU TMEM136 (11760407_x_at) / Fold change /veh TMEM136 (11760407_x_at) / RFU CLDN22 /// WWC2 (11732394_at) / Fold change /veh CLDN22 /// WWC2 (11732394_at) / RFU HLA-DPB1 (11760878_x_at) / Fold change /veh HLA-DPB1 (11760878_x_at) / RFU SPINT1 (11716480_a_at) / Fold change /veh SPINT1 (11716480_a_at) / RFU GAP43 (11754022_s_at) / Fold change /veh GAP43 (11754022_s_at) / RFU A4GNT (11735810_at) / Fold change /veh A4GNT (11735810_at) / RFU PRB3 (11715151_x_at) / Fold change /veh PRB3 (11715151_x_at) / RFU TUBB4B (11761932_at) / Fold change /veh TUBB4B (11761932_at) / RFU CAPN14 (11732068_a_at) / Fold change /veh CAPN14 (11732068_a_at) / RFU TMCC2 (11721928_a_at) / Fold change /veh TMCC2 (11721928_a_at) / RFU IRGQ (11745062_a_at) / Fold change /veh IRGQ (11745062_a_at) / RFU FAM174B (11720279_a_at) / Fold change /veh FAM174B (11720279_a_at) / RFU TMPRSS4 (11748680_a_at) / Fold change /veh TMPRSS4 (11748680_a_at) / RFU FAM212B (11763350_a_at) / Fold change /veh FAM212B (11763350_a_at) / RFU PLEKHG5 (11743358_a_at) / Fold change /veh PLEKHG5 (11743358_a_at) / RFU ZSCAN30 (11745921_a_at) / Fold change /veh ZSCAN30 (11745921_a_at) / RFU CMKLR1 (11741424_a_at) / Fold change /veh CMKLR1 (11741424_a_at) / RFU LOC101060620 /// MAPK8IP1 (11723275_at) / Fold change /veh LOC101060620 /// MAPK8IP1 (11723275_at) / RFU SPTSSB (11747773_x_at) / Fold change /veh SPTSSB (11747773_x_at) / RFU PRSS12 (11739890_at) / Fold change /veh PRSS12 (11739890_at) / RFU BIN1 (11741810_x_at) / Fold change /veh BIN1 (11741810_x_at) / RFU WNT11 (11732464_a_at) / Fold change /veh WNT11 (11732464_a_at) / RFU C10orf10 (11716521_a_at) / Fold change /veh C10orf10 (11716521_a_at) / RFU C5orf56 (11738089_at) / Fold change /veh C5orf56 (11738089_at) / RFU CYB561 (11721691_x_at) / Fold change /veh CYB561 (11721691_x_at) / RFU ANKRD19P (11752326_a_at) / Fold change /veh ANKRD19P (11752326_a_at) / RFU OR2T12 /// OR2T33 /// OR2T8 (11738714_s_at) / Fold change /veh OR2T12 /// OR2T33 /// OR2T8 (11738714_s_at) / RFU VCAN (11748164_a_at) / Fold change /veh VCAN (11748164_a_at) / RFU JSRP1 (11732532_at) / Fold change /veh JSRP1 (11732532_at) / RFU KRTAP10-11 (11738290_x_at) / Fold change /veh KRTAP10-11 (11738290_x_at) / RFU MYO3A (11730013_a_at) / Fold change /veh MYO3A (11730013_a_at) / RFU EBF3 (11725865_a_at) / Fold change /veh EBF3 (11725865_a_at) / RFU CAMK2N1 (11719241_x_at) / Fold change /veh CAMK2N1 (11719241_x_at) / RFU C5orf56 (11738088_a_at) / Fold change /veh C5orf56 (11738088_a_at) / RFU OLFML3 (11715873_a_at) / Fold change /veh OLFML3 (11715873_a_at) / RFU LOC100653217 /// NTM (11731650_a_at) / Fold change /veh LOC100653217 /// NTM (11731650_a_at) / RFU MAPK11 (11762145_a_at) / Fold change /veh MAPK11 (11762145_a_at) / RFU FIZ1 (11724087_x_at) / Fold change /veh FIZ1 (11724087_x_at) / RFU OASL (11726364_x_at) / Fold change /veh OASL (11726364_x_at) / RFU SOX15 (11748057_x_at) / Fold change /veh SOX15 (11748057_x_at) / RFU CD79A (11719716_a_at) / Fold change /veh CD79A (11719716_a_at) / RFU HIST1H1D (11736915_at) / Fold change /veh HIST1H1D (11736915_at) / RFU CASKIN2 (11723855_a_at) / Fold change /veh CASKIN2 (11723855_a_at) / RFU LOC730098 (11760151_x_at) / Fold change /veh LOC730098 (11760151_x_at) / RFU OR4N2 (11742367_at) / Fold change /veh OR4N2 (11742367_at) / RFU PRRT2 (11749266_a_at) / Fold change /veh PRRT2 (11749266_a_at) / RFU SNX32 (11753110_a_at) / Fold change /veh SNX32 (11753110_a_at) / RFU CDHR5 (11726645_a_at) / Fold change /veh CDHR5 (11726645_a_at) / RFU RCAN1 (11760418_a_at) / Fold change /veh RCAN1 (11760418_a_at) / RFU FAM167A (11723789_a_at) / Fold change /veh FAM167A (11723789_a_at) / RFU FAM26E (11764081_at) / Fold change /veh FAM26E (11764081_at) / RFU ISYNA1 (11749810_s_at) / Fold change /veh ISYNA1 (11749810_s_at) / RFU ACY1 (11761880_at) / Fold change /veh ACY1 (11761880_at) / RFU 11764098_at / Fold change /veh 11764098_at / RFU SAMD14 (11745864_x_at) / Fold change /veh SAMD14 (11745864_x_at) / RFU NPB (11741838_a_at) / Fold change /veh NPB (11741838_a_at) / RFU TMPRSS6 (11731388_a_at) / Fold change /veh TMPRSS6 (11731388_a_at) / RFU KRTAP10-2 (11738614_at) / Fold change /veh KRTAP10-2 (11738614_at) / RFU ARHGAP8 /// PRR5-ARHGAP8 (11727945_x_at) / Fold change /veh ARHGAP8 /// PRR5-ARHGAP8 (11727945_x_at) / RFU KRTAP5-7 /// NADSYN1 (11734609_at) / Fold change /veh KRTAP5-7 /// NADSYN1 (11734609_at) / RFU RASL12 (11751679_a_at) / Fold change /veh RASL12 (11751679_a_at) / RFU CDKN2B (11736163_a_at) / Fold change /veh CDKN2B (11736163_a_at) / RFU PRF1 (11729649_at) / Fold change /veh PRF1 (11729649_at) / RFU, ZNF638 /// ZNF638-IT1 / Fold change vs veh, ZNF638 /// ZNF638-IT1 / RFU, PANK3 / Fold change vs veh, PANK3 / RFU, SH3YL1 / Fold change vs veh, SH3YL1 / RFU, ZEB2 / Fold change vs veh, ZEB2 / RFU, NRIP1 / Fold change vs veh, NRIP1 / RFU, PTTG1IP / Fold change vs veh, PTTG1IP / RFU, CAPN2 / Fold change vs veh, CAPN2 / RFU, MED14 / Fold change vs veh, MED14 / RFU, SNORA58 / Fold change vs veh, SNORA58 / RFU, C1orf63 / Fold change vs veh, C1orf63 / RFU, LRRFIP1 / Fold change vs veh, LRRFIP1 / RFU, NDUFAF7 / Fold change vs veh, NDUFAF7 / RFU, SLC12A2 / Fold change vs veh, SLC12A2 / RFU, IBTK / Fold change vs veh, IBTK / RFU, ESF1 / Fold change vs veh, ESF1 / Fold change vs veh, TMEM50B / RFU, TAOK1 / Fold change vs veh, TAOK1 / RFU, ACBD3 / Fold change vs veh, ACBD3 / RFU, TMA16 / Fold change vs veh, TMA16 / RFU, RWDD3 / Fold change vs veh, RWDD3 / RFU, BCAT1 / Fold change vs veh, BCAT1 / RFU, EDEM3 / Fold change vs veh, EDEM3 / RFU, TMEM33 / Fold change vs veh, TMEM33 / RFU, WDR75 / Fold change vs veh, WDR75 / RFU, AHCTF1 / Fold change vs veh, AHCTF1 / RFU, TFRC / Fold change vs veh, TFRC / RFU, ZDHHC17 / Fold change vs veh, ZDHHC17 / RFU, NOM1 / Fold change vs veh, NOM1 / RFU, ARL8B / Fold change vs veh, ARL8B / RFU, ZBTB11 / Fold change vs veh, ZBTB11 / RFU, TAMM41 / Fold change vs veh, TAMM41 / RFU, KIAA1704 /// LOC100996395 / Fold change vs veh, KIAA1704 /// LOC100996395 / RFU, ING1 / Fold change vs veh, ING1 / RFU, TRMT61B / Fold change vs veh, TRMT61B / RFU, FUBP3 / Fold change vs veh, FUBP3 / RFU, TP53 / Fold change vs veh, TP53 / RFU, TNKS2 / Fold change vs veh, TNKS2 / RFU, ZFP14 / Fold change vs veh, ZFP14 / RFU, ACTR2 / Fold change vs veh, ACTR2 / RFU, PPP3R1 / Fold change vs veh, PPP3R1 / RFU, PIK3R1 / Fold change vs veh, PIK3R1 / RFU, HNRNPA1 / Fold change vs veh, HNRNPA1 / RFU, RNF170 / Fold change vs veh, RNF170 / RFU, ZNF28 / Fold change vs veh, ZNF28 / RFU, RNGTT / Fold change vs veh, RNGTT / RFU, OGT / Fold change vs veh, OGT / RFU, BRD1 / Fold change vs veh, BRD1 / RFU, MARS / Fold change vs veh, MARS / RFU, ZNF655 / Fold change vs veh, ZNF655 / RFU, FAHD1 / Fold change vs veh, FAHD1 / RFU, BDP1 / Fold change vs veh, BDP1 / RFU, LRRCC1 / Fold change vs veh, LRRCC1 / RFU, ARID1A / Fold change vs veh, ARID1A / RFU, ZNF146 / Fold change vs veh, ZNF146 / RFU, ZNF330 / Fold change vs veh, ZNF330 / RFU, GPN3 / Fold change vs veh, GPN3 / RFU, C9orf123 / Fold change vs veh, C9orf123 / RFU, N4BP2L2 / Fold change vs veh, N4BP2L2 / RFU, ARFIP1 / Fold change vs veh, ARFIP1 / RFU, FAM179B / Fold change vs veh, FAM179B / RFU, BCL10 / Fold change vs veh, BCL10 / RFU, UHRF1BP1L / Fold change vs veh, UHRF1BP1L / RFU, BET1 / Fold change vs veh, BET1 / RFU, CNOT2 / Fold change vs veh, CNOT2 / RFU, ZNF268 / Fold change vs veh, ZNF268 / Fold change vs veh, ZNF507 / RFU, DGCR2 / Fold change vs veh, DGCR2 / RFU, WDSUB1 / Fold change vs veh, WDSUB1 / Fold change vs veh, HSP90B1 /// MIR3652 / RFU, ADSS / Fold change vs veh, ADSS / RFU, GK / Fold change vs veh, GK / RFU, ZNF148 / Fold change vs veh, ZNF148 / RFU, TAF9 / Fold change vs veh, TAF9 / RFU, SLC1A5 / Fold change vs veh, SLC1A5 / RFU, SLMO2 / Fold change vs veh, SLMO2 / RFU, ABCC4 / Fold change vs veh, ABCC4 / RFU, LOC101060439 /// RAP1B / Fold change vs veh, LOC101060439 /// RAP1B / RFU, RFX7 / Fold change vs veh, RFX7 / RFU, GTPBP10 / Fold change vs veh, GTPBP10 / RFU, CNEP1R1 / Fold change vs veh, CNEP1R1 / RFU, BIVM-ERCC5 /// ERCC5 / Fold change vs veh, BIVM-ERCC5 /// ERCC5 / RFU, ILF3 / Fold change vs veh, ILF3 / RFU 11762660_at / Fold change /veh 11762660_at / RFU VCAN (11757783_s_at) / Fold change /veh VCAN (11757783_s_at) / RFU DDX43 (11728927_at) / Fold change /veh DDX43 (11728927_at) / RFU KRT8 (11758188_x_at) / Fold change /veh KRT8 (11758188_x_at) / RFU NKD1 (11759106_at) / Fold change /veh NKD1 (11759106_at) / RFU SRD5A1 (11742802_a_at) / Fold change /veh SRD5A1 (11742802_a_at) / RFU TPSAB1 /// TPSB2 (11721975_s_at) / Fold change /veh TPSAB1 /// TPSB2 (11721975_s_at) / RFU GSTM3 (11746129_a_at) / Fold change /veh GSTM3 (11746129_a_at) / RFU IL23R (11737362_x_at) / Fold change /veh IL23R (11737362_x_at) / RFU TMEM51 (11727254_a_at) / Fold change /veh TMEM51 (11727254_a_at) / RFU PIWIL2 (11732686_x_at) / Fold change /veh PIWIL2 (11732686_x_at) / RFU ORM1 (11744905_x_at) / Fold change /veh ORM1 (11744905_x_at) / RFU CCDC152 (11743942_at) / Fold change /veh CCDC152 (11743942_at) / RFU ECM1 (11717891_a_at) / Fold change /veh ECM1 (11717891_a_at) / RFU IL23R (11748794_a_at) / Fold change /veh IL23R (11748794_a_at) / RFU TNFAIP8L3 (11732012_x_at) / Fold change /veh TNFAIP8L3 (11732012_x_at) / RFU MBOAT4 (11741988_at) / Fold change /veh MBOAT4 (11741988_at) / RFU 11764193_at / Fold change /veh 11764193_at / RFU TMEM53 (11763286_at) / Fold change /veh TMEM53 (11763286_at) / RFU MAGEB2 (11727129_at) / Fold change /veh MAGEB2 (11727129_at) / RFU TMEM200A (11744735_a_at) / Fold change /veh TMEM200A (11744735_a_at) / RFU CCDC152 (11751479_a_at) / Fold change /veh CCDC152 (11751479_a_at) / RFU FAM211A (11726209_a_at) / Fold change /veh FAM211A (11726209_a_at) / RFU RGS16 (11746705_a_at) / Fold change /veh RGS16 (11746705_a_at) / RFU VCAN (11755009_s_at) / Fold change /veh VCAN (11755009_s_at) / RFU RHOB (11743442_s_at) / Fold change /veh RHOB (11743442_s_at) / RFU RGS16 (11720943_a_at) / Fold change /veh RGS16 (11720943_a_at) / RFU RGS16 (11720944_at) / Fold change /veh RGS16 (11720944_at) / RFU, VPS4B / Fold change vs veh, VPS4B / RFU, CREB1 / Fold change vs veh, CREB1 / RFU, DNAJC13 / Fold change vs veh, DNAJC13 / RFU, GNAQ / Fold change vs veh, GNAQ / RFU, CDK5R1 / Fold change vs veh, CDK5R1 / RFU, ZRANB3 / Fold change vs veh, ZRANB3 / RFU, CUL4A / Fold change vs veh, CUL4A / RFU, CCNY / Fold change vs veh, CCNY / RFU, UFL1 / Fold change vs veh, UFL1 / RFU, COG3 / Fold change vs veh, COG3 / RFU, DIAPH2 / Fold change vs veh, DIAPH2 / RFU, SKA2 / Fold change vs veh, SKA2 / RFU, AFF3 / Fold change vs veh, AFF3 / RFU, LMF1 / Fold change vs veh, LMF1 / RFU, IPO11 / Fold change vs veh, IPO11 / RFU, DFFB / Fold change vs veh, DFFB / RFU, FOXP1 / Fold change vs veh, FOXP1 / RFU, CARD8 / Fold change vs veh, CARD8 / RFU, STRN3 / Fold change vs veh, STRN3 / RFU, ADK / Fold change vs veh, ADK / RFU, RASSF2 / Fold change vs veh, RASSF2 / RFU, WIPF1 / Fold change vs veh, WIPF1 / RFU, LARP1B / Fold change vs veh, LARP1B / RFU, RASA1 / Fold change vs veh, RASA1 / RFU, RB1 / Fold change vs veh, RB1 / RFU, PPFIA1 / Fold change vs veh, PPFIA1 / RFU, MAT2A / Fold change vs veh, MAT2A / RFU, CCT5 / Fold change vs veh, CCT5 / RFU, WDR92 / Fold change vs veh, WDR92 / RFU, CUX1 / Fold change vs veh, CUX1 / RFU, TTC7A / Fold change vs veh, TTC7A / RFU, TMEM135 / Fold change vs veh, TMEM135 / RFU, DEPTOR / Fold change vs veh, DEPTOR / RFU, CPM / Fold change vs veh, CPM / RFU, DNAJB6 / Fold change vs veh, DNAJB6 / RFU, CACNA2D3 / Fold change vs veh, CACNA2D3 / RFU, DTX4 / Fold change vs veh, DTX4 / RFU, TFCP2 / Fold change vs veh, TFCP2 / RFU, GMCL1 /// GMCL1P1 / Fold change vs veh, GMCL1 /// GMCL1P1 / RFU, AEBP2 / Fold change vs veh, AEBP2 / RFU, SNHG1 /// SNORD22 /// SNORD25 /// SNORD26 /// SNORD27 /// SNORD28 /// SNORD29 /// SNORD31 / Fold change vs veh, SNHG1 /// SNORD22 /// SNORD25 /// SNORD26 /// SNORD27 /// SNORD28 /// SNORD29 /// SNORD31 / Fold change (Aza/veh), C12orf56 (ProbeSet 11735607_a_at) / Fold change (ACY-1035/veh), C12orf56 (ProbeSet 11735607_a_at) / Fold change (Aza/veh), FGFR1OP (ProbeSet 11751329_s_at) / Fold change (ACY-1035/veh), FGFR1OP (ProbeSet 11751329_s_at) / Fold change (Aza/veh), VPS36 (ProbeSet 11739960_a_at) / Fold change (ACY-1035/veh), VPS36 (ProbeSet 11739960_a_at) / RFU SYPL1 (11715823_x_at) / Fold change /veh SYPL1 (11715823_x_at) / RFU IGFBP7 (11715501_s_at) / Fold change /veh IGFBP7 (11715501_s_at) / RFU REEP3 (11722064_at) / Fold change /veh REEP3 (11722064_at) / RFU IGLL1 (11728026_x_at) / Fold change /veh IGLL1 (11728026_x_at): dose or concentration left out as unconfirmed
Conditions: ProbeSet 11725787_a_at; LIST B

Nc1ccc(-c2cccs2)cc1NC(=O)c1ccc2c(c1)cc(C1CC1)n2CCN1CCOCC1 [ACY-1035]
Fold change vs veh, TMA16: 0.86
